Assay results reported in ChEMBL document CHEMBL1201862, “PubChem BioAssay data set” (2004).
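Tested at 5 concentrations; 48 h exposure; 96-well plates; endpoints linearly interpolated, else capped at highest concentration. GI50 = concentration required for 50% inhibition of growth.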 Active and inactive are the calls of the source. Cut-off read from the data, not from the text of the source: active = GI50 up to about 1.1 µM and inactive = higher.

How the values were obtained:
Assay in all cases: NCI-60 cell line screen, 48 h
[1] = system: HOP-92
[2] = system: LOX IMVI
[3] = system: Hs-578T
[4] = system: IGROV-1
[5] = system: Malme-3M
[6] = system: OVCAR-5
[7] = system: SK-MEL-5
[8] = system: MDA-MB-231
[9] = system: T47D
[10] = system: OVCAR-3
[11] = system: SF-295
[12] = system: DU-145
[13] = system: SN12C
[14] = system: NCI-H460
[15] = system: CAKI-1
[16] = system: SK-MEL-2
[17] = system: SNB-19
[18] = system: MOLT-4
[19] = system: SNB-75
[20] = system: RPMI-8226
[21] = system: RXF 393
[22] = system: NCI-H226
[23] = system: OVCAR-8
[24] = system: OVCAR-4
[25] = system: M14
[26] = system: HCT-116
[27] = system: MDA-N
[28] = system: SK-MEL-28
[29] = system: NCI-H23
[30] = system: UACC-257
[31] = system: SF-268
[32] = system: SW-620
[33] = system: U-251
[34] = system: ACHN
[35] = system: KM12
[36] = system: HOP-62
[37] = system: SK-OV-3
[38] = system: PC-3
[39] = system: A549
[40] = system: A498
[41] = system: MCF7
[42] = system: HT-29
[43] = system: HCT-15
[44] = system: NCI/ADR-RES
[45] = system: 786-0
[46] = system: TK-10
[47] = system: K562
[48] = system: UO-31
[49] = system: HL-60
[50] = system: BT-549
[51] = system: SR
[52] = system: COLO 205
[53] = system: EKVX
[54] = system: SF-539

Measured: GI50

CCCCC/C=C\C=C\CCCCCCCCC(=O)OC
inactive: [1] > 100 µM | [2] 29.8 µM | [3] > 100 µM | [4] > 100 µM | [5] > 100 µM | [6] > 100 µM | [7] 24 µM | [8] > 100 µM | [9] > 100 µM | [10] > 100 µM | [11] > 100 µM | [12] > 100 µM | [13] > 100 µM | [14] > 100 µM | [15] > 100 µM | [16] > 100 µM | [17] > 100 µM | [18] > 100 µM | [19] > 100 µM | [20] > 100 µM | [21] > 100 µM | [22] > 100 µM | [23] > 100 µM | [24] > 100 µM | [25] > 100 µM | [26] > 100 µM | [27] > 100 µM | [28] > 100 µM | [29] > 100 µM | [30] > 100 µM | [31] > 100 µM | [32] > 100 µM | [33] > 100 µM | [34] > 100 µM | [35] > 100 µM | [36] > 100 µM | [37] > 100 µM | [38] > 100 µM | [39] > 100 µM | [40] > 100 µM | [41] > 100 µM | [42] > 100 µM | [44] > 100 µM | [45] > 100 µM | [46] > 100 µM | [47] > 100 µM | [48] 13.9 µM | [49] > 100 µM | [50] > 100 µM | [51] > 100 µM | [52] > 100 µM | [53] > 100 µM | [54] > 100 µM
> 100 µM: [43]
